Measurements: patent US5244916A, “Inhibition of respiratory burst using posttranslational modification inhibitors” (The Scripps Research Institute, priority 1992, dated 1993)

Legend:
[1] = system: HL-60 cells (NADPH oxidase / respiratory burst); experiment: Prevention of compactin-inhibition of FMLP-stimulated O2- formation in HL-60 cells by mevalonic acid and other supplements; type: cell-based; settings: for block in NADPH oxidase activity / cellular responsiveness after supplementation: compactin-treated HL-60 cells, exogenous supplement
Procedure: (§1) HL-60 cells were maintained in stationary culture in RPMI 1640 medium (Gibco, Grand Island, NY) containing 10% fetal bovine serum at 37° C in an atmosphere of 95 air and 5% CO2. The cells (about 8×10^5 /ml) were differentiated into neutrophil-like cells by treatment with 1.3% DMSO for six days (Harris, et al., J. Leukocyte Biol. 37: 407-422 (1985)). The cells were treated with the indicated levels of compactin or lovastatin by addition of a 1,000-fold concentrated stock solution to the appropriate concentration on day 4 of differentiation. […] In studies of the protective effect of mevalonic acid, the compound was added as the mevalonolactone (Sigma Chemical Co., St. Louis, MO) at a concentration of 1 mM to the cell culture on days 4 to 6. Similarly, cholesterol was added in the form of LDL prepared according to the method of Curtiss and Edgington (Curtiss, et al., J. Biol. Chem. 257: 15213-15221 (1991)) at a final concentration of 50 μg/ml; ubiquinone (Sigma Chemical Co., St. Louis, MO) was added as Coenzyme Q-10 at a final concentration of 0.5 mM; and dolichol (Sigma Chemical Co., St. Louis, MO) was added as a dispersion in phosphatidylcholine at a final concentration of 0.5 mM (Cutts, et al., J. Cell Physiol. 139: 550-555 (1989)).
O2 --formation by HL-60 cells was assessed by the SOD-sensitive reduction of cytochrome c. Cells were suspended at 1×10^7 /ml in Krebs-Ringer Hepes buffer with 5.5 mM glucose (KRHG) and 50-100μl of cells were added to a cuvette containing 100 μM cytochrome c (type III, Sigma Chemical Co., St. Louis, MO), ±300 μg/ml SOD (Sigma Chemical Co., St. Louis, MO) in 700-750 μl KRHG. Cytochalasin b (Sigma Chemical Co., St. Louis, MO) was added to a final concentration of 5 μg/ml, and the cells were incubated at 37° C. for five minutes while a stable baseline at a wavelength of 550 nm was obtained. O2 --formation was initiated by the addition of 1 μM N-formylmethionylleucylphenylalanine (FMLP; Sigma Chemical Co., St. Louis, MO) or 1μg/ml phorbol myristate acetate (PMA; Sigma Chemical Co., St. Louis, MO). Cytochrome c reduction at 550nm was continuously monitored and maximal rate and extent of the reaction calculated.
Inhibition of protein isoprenylation can interfere with LMWG function without inhibiting overall cellular function (Maltese, supra (1990)). Since compactin inhibits at the enzymatic step preceding mevalonic acid synthesis, one should be able to reverse effects of compactin due specifically to inhibition of this pathway by addition of exogenous mevalonic acid.

[2] = system: HL-60 cells; experiment: HL-60 cell viability by propidium iodide uptake (flow cytometry)
Procedure: as §1, with “The cells were treated with the indicated levels of compactin or lovastatin by addition of a 1,000-fold concentrated stock solution to the appropriate concentration on day 4 of differentiation.” left out
Cell viability was determined by uptake of propidium iodide (537-059; Calbiochem-Behring Corp., La Jolla, CA), detected from the emission fluorescence at 625/35 nm using a DM560 dichronic mirror (Krishan, J. Cell. Biol. 66: 188-192 (1975)). Expression of N-formyl peptide receptor was determined using fluorescein-labeled N-CHONle-Leu-Phe-Nle-Tyr-Lys (Molecular Probes, Inc., Eugene, OR) essentially by the method of Sklar and Finney (Sklar and Finney, Cytometry 3: 161-165 (1982)). Specificity of ligand binding was determined in the presence of 4 mM unlabeled T-boc peptide. CD14 expression was determined using monoclonal antibody 3C10 at a dilution of 1:1,000 (see Goyert and Ferrero, in Leucocyte Typing III: White Cell Differentiation Antigens, McMichael, ed., Oxford Univ. Press, NY, pp. 613-619 (1988)), with detection using a fluorescein-labeled secondary antibody. Flow cytometric analyses were performed on a FACSIV (registered trademark of Becton-Dickinson, San Jose, CA) equipped with a 2W argon laser (Coherent Inc., Palo Alto, collected in list mode and analyzed using the Consort 30 program (Becton-Dickinson, San Jose, CA) after collecting 10,000 events.

[3] = system: NADPH oxidase in HL-60 cells; experiment: Inhibition of NADPH oxidase activation / O2- generation in HL-60 cells (stimulus not singled out); type: cell-based
Procedure: as §1, with “(1989)). O2 --formation by HL-60 cells was assessed by the SOD-sensitive reduction of cytochrome c. Cells were suspended at 1×10^7 /ml in Krebs-Ringer Hepes buffer with 5.5 mM glucose (KRHG) and 50-100μl of cells were added to a cuvette containing 100 μM cytochrome c (type III, Sigma Chemical Co., St. Louis, MO), ±300 μg/ml SOD (Sigma Chemical Co., St. Louis, MO) in 700-750 μl KRHG. Cytochalasin b (Sigma Chemical Co., St. Louis, MO) was added to a final concentration of 5 μg/ml, and the cells were incubated at 37° C. for five minutes while a stable baseline at a wavelength of 550 nm was obtained. O2 --formation was initiated by the addition of 1 μM N-formylmethionylleucylphenylalanine (FMLP; Sigma Chemical Co., St. Louis, MO) or 1μg/ml phorbol myristate acetate (PMA; Sigma Chemical Co., St. Louis, MO). Cytochrome c reduction at 550nm was continuously monitored and maximal rate and extent of the reaction calculated.” for “(1989)).”

Compound: CC(C)CCC[C@@H](C)[C@H]1CC[C@H]2[C@@H]3CC=C4C[C@@H](O)CC[C@]4(C)[C@H]3CC[C@]12C [cholesterol]
- effect on compactin blockade of oxidase activity ([1]; 50 μg/ml LDL cholesterol): no effect
- FMLP-stimulated O2- formation, Extent ([1]; 50 μg/ml cholesterol, no compactin, n = 2): 99 % of control
- FMLP-stimulated O2- formation, Rate ([1]; 50 μg/μl cholesterol, no compactin, n = 2): 90 % of control
- block in NADPH oxidase activity / cellular responsiveness after supplementation [1]: apparently not overcome

Compound: CC[C@H](C)C(=O)O[C@H]1C[C@@H](C)C=C2C=C[C@H](C)[C@H](CC[C@@H]3C[C@@H](O)CC(=O)O3)[C@H]21 [lovastatin]
- cell viability when inhibitor added at day 1 of differentiation [2]: somewhat decreased
- inhibition of NADPH oxidase activation, effective concentrations [3]: micromolar concentrations
- ability of HL-60 cells to generate O2- ([3]; response to receptor stimuli and downstream activators): markedly inhibited

Compound: C[C@@](O)(CCO)CC(=O)O [mevalonic acid]
- FMLP-stimulated O2- formation, Extent ([1]; 1 mM mevalonate, no compactin): 111 ± 8.0 % of control
- FMLP-stimulated O2- formation, Rate ([1]; 1 mM mevalonate, no compactin): 120 ± 10 % of control
- reversal of compactin inhibition of O2- formation ([1]; 1 mM mevalonic acid (as mevalonolactone), 4 or 10 μM compactin): nearly completely reversed
- block in NADPH oxidase activity / cellular responsiveness after supplementation [1]: totally restored
- effect on control rate or extent of O2- formation ([1]; no compactin): no consistent effect

Compound: COC1=C(OC)C(=O)C(C/C=C(\C)CC/C=C(\C)CC/C=C(\C)CC/C=C(\C)CC/C=C(\C)CC/C=C(\C)CC/C=C(\C)CC/C=C(\C)CC/C=C(\C)CCC=C(C)C)=C(C)C1=O [ubiquinone]
- effect on compactin blockade of oxidase activity ([1]; 0.5 mM ubiquinone): no effect
- block in NADPH oxidase activity / cellular responsiveness after supplementation [1]: apparently not overcome

Compound: dolichol
- effect on compactin blockade of oxidase activity ([1]; 0.5 mM dolichol): no effect
- block in NADPH oxidase activity / cellular responsiveness after supplementation [1]: apparently not overcome
